Reference: patent publication US20210355106A1, “NEW AMINO-PYRIMIDONYL-PIPERIDINYL DERIVATIVES, A PROCESS FOR THEIR PREPARATION AND PHARMACEUTICAL COMPOSITIONS CONTAINING THEM” (LES LABORATOIRES SERVIER, priority 2018, published 2021)
Structures can show the parent of a compound that is named as a salt.

Legend:
[1] = tested on: Z138 mantle cell lymphoma tumour cell lines; assay: In vitro cytotoxicity, MTT assay; format: cell-based; conditions: Homo sapiens, Z-138; Z138 cells, exposed to the test compounds for 96 hours
Description: The cytotoxicity studies were evaluated by MTT [3-(4,5-dimethylthiaxol-2-yl)-2,5-diphenyltetrazolium bromide|assay and carried out on Z138 mantle cell lymphoma tumour cell lines. The cells are distributed onto microplates and exposed to the test compounds for 96 hours. MTT is then added for 4 hours and converted by NAD(P)H-dependent cellular oxidoreductase enzymes in forma/an, which has a purple color. The viable cell number is proportional to the production of formazan salts and cell viability can be quantified by the absorbance of the solution at 540 nm with a spectrophotometer (Carmichael et al., Cancer Res. 1987, 47, 936-942).

USP7 = target: T1, USP7 (Homo sapiens, UniProt Q93009, C315A); assay: Inhibition of USP7 by Fluorescence Intensity (FLINT) readings, Ubiquitin-Rhodamine-110 substrate; format: biochemical; conditions: 0.25 nM His-His-USP7 (aa208-560), 60 minutes at 30° C. preincubation; Ki determined from IC50 according to Cer et al.
T1 construct: 0.25 nM His-His-USP7 (aa208-560, |C315A|) was incubated with compound; His-His (N)
Description: USP7 activity was measured using Rhodamine-110 c-terminal labelled Ubiquitin as a substrate (UbiQ Bio), Incubation with USP7 results in the release of Rhodamine-110 leading to an increase in fluorescence which can be used in the continuous measurement of USP7 activity.
The USP7 reactions were performed in a 50 μL volume, in 384 well black solid low binding plates (Corning #3575). The reaction buffer consisted of 100 mM Bicine pH 8.0, 0.01% TritonX 100, 1 mM TCEP, and 10% DMSO.
0.25 nM His-His-USP7 (aa208-560, |C315A|) was incubated with compound (final concentration 10% DMSO) for 60 minutes at 30° C. The reaction was then initiated by the addition of 50) nM Ubiquitin-Rhodamine-110 substrate or 4 μM Ubiquitin-Rhodamine-110 substrate and the plate read every 3 minutes for 21 minutes to measure the release of Rhodamine-110. Fluorescence Intensity (FLINT) readings were measured using a Biomek Neo plate reader (Ex.485 nm, Em.535 nm).
The inhibition of increasing doses of compound was expressed as a percentage reduction in kinetic rate compared to the kinetic rates established between ‘DMSO only’ and ‘total inhibition’ controls (no USP7). The inhibitory concentrations that gave a 50% reduction in kinetic rate (IC50) were determined, from 11-point dose response curves, in XL-Fit using a 4-Parameter Logistic Model 205 (Sigmoidal Dose-Response Model). The K, values were determined from the IC50 values according to Cer et al. Nucleic Acids Res. 2009, July 1; 37 (WebServer issue): W441-W445.

T1 sequence (Q93009 208-560 C315A): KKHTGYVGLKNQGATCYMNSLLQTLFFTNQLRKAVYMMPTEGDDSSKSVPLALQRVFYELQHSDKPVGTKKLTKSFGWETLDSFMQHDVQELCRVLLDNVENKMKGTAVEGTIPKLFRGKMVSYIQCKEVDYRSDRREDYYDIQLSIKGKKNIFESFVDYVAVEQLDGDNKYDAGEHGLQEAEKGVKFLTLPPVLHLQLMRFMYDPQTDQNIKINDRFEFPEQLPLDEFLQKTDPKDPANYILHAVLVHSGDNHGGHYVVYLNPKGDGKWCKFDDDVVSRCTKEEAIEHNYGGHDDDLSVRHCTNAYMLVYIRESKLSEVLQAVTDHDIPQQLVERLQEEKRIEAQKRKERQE

Row | Compound | IC50 [1] | Ki (USP7)
1 | COc1cc(Oc2ncn(C[C@@]3(O)CCN(C(=O)[C@@H]4CCN(Cc5ncccn5)C[C@H]4c4ccccc4)CC3(F)F)c(=O)c2N)ccc1F [Example 215, 5-amino-3-[[(4S)-3,3-difluoro-4-hydroxy-1-[(3R,4R)-3-phenyl-1-(pyrimidin-2-ylmethyl)piperidine-4-carbonyl]-4-piperidyl]methyl]-6-(4-fluoro-3-methoxy-phenoxy)pyrimidin-4-one] | 24.6 nM | 54.1 nM
2 | Nc1c(Oc2ccc(F)cc2)ncn(C[C@@]2(O)CCN(C(=O)[C@@H]3CCN(Cc4ncccn4)C[C@H]3c3ccccc3)CC2(F)F)c1=O [Example 204] | 26.9 nM | 36.5 nM
3 | Nc1c(Oc2ccc(F)cc2)ncn(CC2(O)CCN(C(=O)[C@@H]3CCN(C4(c5cccc(Cl)c5)COC4)C[C@H]3c3ccccc3)CC2)c1=O [Example 171] | 31.4 nM | 42.8 nM
4 | Nc1c(Oc2ccc(F)cc2)ncn(CC2(O)CCN(C(=O)[C@@H]3CCN(Cc4ccccc4F)C[C@H]3c3ccccc3)CC2)c1=O [Example 52, 5-amino-6-(4-fluorophenoxy)-3-[(1-((3R,4R)-1-[(2-fluorophenyl)methyl]-3-phenylpiperidine-4-carbonyl}-4-hydroxypiperidin-4-yl)methyl]pyrimidin-4(3H)-one] | 5.4 nM | 13 nM
5 | Nc1c(Oc2ccc(F)cc2)ncn(CC2(O)CCN(C(=O)[C@@H]3CCN(Cc4cccnc4)C[C@H]3c3ccccc3)CC2)c1=O [Example 62, 5-amino-6-(4-fluorophenoxy)-3-[(4-hydroxy-1-{(3R,4R)-3-phenyl-1-[(pyridin-3-yl)methyl]piperidine-4-carbonyl)piperidin-4-yl)methyl]pyrimidin-4(3H)-one] | 14 nM | 14 nM
6 | Cc1ccc(-c2nccc(CN3CC[C@@H](C(=O)N4CC[C@](O)(Cn5cnc(Oc6ccc(F)cc6)c(N)c5=O)C(F)(F)C4)[C@H](c4ccccc4)C3)n2)cn1 [Example 176, 5-amino-3-[[(4S)-3,3-difluoro-4-hydroxy-1-((3R,4R)-1-{[2-(6-methyl-3-pyridyl)pyrimidin-4-yl]methyl]-3-phenyl-piperidine-4-carbonyl]-4-piperidyl]methyl]-6-(4-fluorophenoxy)pyrimidin-4-one] | 1.52 nM | 3.2 nM
7 | CC(C)(C)OC(=O)N1CC[C@@H](C(=O)N2CCC(O)(Cn3cnc(Oc4cccnc4)c(N)c3=O)CC2)[C@H](c2ccccc2)C1 [Example 137, tert-butyl (3R,4R)-4-[4-[[5-amino-6-oxo-4-(3-pyridyloxy)pyrimidin-1-yl]methyl]-4-hydroxy-piperidine-1-carbonyl]-3-phenyl-piperidine-1-carboxylate] | – | 226 nM
8 | Nc1c(Oc2ccccc2)ncn(CC2(O)CCN(C(=O)[C@@H]3CCNC[C@H]3c3ccccc3)CC2)c1=O [Example 20, 5-amino-3-[4-hydroxy-1-[(3R,4R)N-phenylpiperidine-4-carbonyl-4-piperidyl]methyl]-6-phenoxy-pyrimidin-4-one] | – | 112 nM
9 | COc1cc(Oc2ncn(CC3(O)CCN(C(=O)[C@@H]4CCN(C(=O)OC(C)(C)C)C[C@H]4c4ccccc4)CC3)c(=O)c2N)ccc1F [Example 4, tert-butyl (3R,4R)-4-[4-[[5-amino-4(4-fluoro-3-methoxy-phenoxy)-6-oxo-pyrimidin-1-yl]methyl]-4-hydroxy-piperidine-1-carbonyl]-3-phenyl-piperidine-1-carboxylate] | – | 115 nM
10 | Nc1c(Oc2ccc(F)cc2)ncn(CC2(O)CCN(C(=O)[C@@H]3CCN(C(=O)Nc4nc(C(F)(F)F)cs4)C[C@H]3c3ccccc3)CC2)c1=O [Example 88, (3R,4R)-4-[4-[[5-amino-4-(4-fluorophenoxy)-6-oxo-pyrimidin-1-yl]methyl]-4-hydroxy-piperidine-1-carbonyl]-3-phenyl-N-[4-(trifluoromethyl)thiazol-2-yl]piperidine-1-carboxamide] | – | 187 nM
11 | Nc1c(Oc2cccnc2)ncn(CC2(O)CCN(C(=O)[C@@H]3CCNC[C@H]3c3ccccc3)CC2)c1=O [Example 151, 5-amino-3-[[4-hydroxy-1-[(3R,4R)-3-phenylpiperidine-4-carbonyl]-4-piperidyl]methyl]-6-(3-pyridyloxy)pyrimidin-4-one, hydrochloride] | – | 214 nM
12 | COc1cc(Oc2ncnc(OC[C@@]3(O)CCN(C(=O)[C@@H]4CCN(C(=O)OC(C)(C)C)C[C@H]4c4ccccc4)CC3(F)F)c2N)ccc1F [Example 135] | – | 206 nM
13 | COc1cc(Oc2ncn(CC3(O)CCN(C(=O)[C@@H]4CCNC[C@H]4c4ccccc4)CC3)c(=O)c2N)ccc1F [Example 17, 5-amino-6-(4-fluoro-3-methoxy-phenoxy)-3-[[4-hydroxy-1-(3R,4R)-3-phenylpiperidine-4-carbonyl]-4-piperidyl]methyl]pyrimidin-4-one hydrochloride] | – | 116 nM
14 | COc1cc(Oc2ncn(C[C@@]3(O)CCN(C(=O)[C@@H]4CCN(Cc5ccncn5)C[C@H]4c4ccccc4)CC3(F)F)c(=O)c2N)ccc1F [Example 220, 5-amino-3-[[(4S)-3,3-difluoro-4-hydroxy-1-[(3R,4R)-3-phenyl-1-(pyrimidin-4-ylmethyl)piperidine-4-carbonyl]-4-piperidyl]methyl]-6-(4-fluoro-3-methoxy-phenoxy)pyrimidin-4-one] | – | 98.2 nM
15 | Cc1ccc(-c2cccc(C(=O)N3CC[C@@H](C(=O)N4CCC(O)(Cn5cnc(Oc6ccc(F)cc6)c(N)c5=O)CC4)[C@H](c4ccccc4)C3)c2)cn1 [Example 32] | – | 4.6 nM
16 | CC(C)(C)OC(=O)N1CC[C@@H](C(=O)N2CCC(O)(Cn3cnc(Oc4ccccc4)c(N)c3=O)CC2)[C@H](c2ccccc2)C1 [Example 7, tert-butyl (3R,4R)-4-[4-[(5-amino-6-oxo-4-phenoxy-pyrimidin-1-yl)methyl]-4-hydroxy-piperidine-1-carbonyl]-3-phenyl-piperidine-1-carboxylate] | – | 137 nM
17 | CC(C)(C)OC(=O)N1CC[C@@H](C(=O)N2CC[C@](O)(Cn3cnc(Oc4ccc(F)cc4)c(N)c3=O)C(F)(F)C2)[C@H](c2ccccc2)C1 [Example 10] | – | 104 nM
18 | Nc1c(Oc2ccccc2)ncn(CC2(O)CCN(C(=O)[C@@H]3CCN(C4(c5ccc(F)cc5)COC4)C[C@H]3c3ccccc3)CC2)c1=O [Example 115] | – | 418 nM
19 | CC(C)(C)OC(=O)N1CC[C@@H](C(=O)N2CCC(O)(Cn3cnc(Oc4ccc(Cl)cc4)c(N)c3=O)CC2)[C@H](c2ccccc2)C1 [Example 1, tert-butyl (3R,4R)-4-[4-[[5-amino-4-(4-chlorophenoxy)-6-oxo-pyrimidin-1-yl]methyl]-4-hydroxy-piperidine-1-carbonyl]-3-phenyl-piperidine-1-carboxylate] | – | 103 nM
20 | COc1ccc(C2(N3CC[C@@H](C(=O)N4CCC(O)(Cn5cnc(Oc6ccc(F)cc6)c(N)c5=O)CC4)[C@H](c4ccccc4)C3)COC2)cc1 [Example 156, 5-amino-6-(4-fluorophenoxy)-3-[[4-hydroxy-1-[(3R,4R)-1-[3-(4-methoxyphenyl)oxetan-3-yl]-3-phenyl-piperidine-4-carbonyl]-4-piperidyl]methyl]pyrimidin-4-one] | – | 140 nM
21 | Nc1c(Oc2ccc(F)cc2)ncn(CC2(O)CCN(C(=O)[C@@H]3CCN(C(=O)c4ccc5nc[nH]c(=O)c5c4)C[C@H]3c3ccccc3)CC2)c1=O [Example 57, 6-[(3R,4R)-4-(4-t[5-amino-4-(4-fluorophenoxy)-6-oxopyrimidin-[(6N)-yl]methyl}-4-hydroxypiperidine-1-carbonyl)-3-phenylpiperidine-1-carbonyl]quinazolin-4(3n)-one] | – | 5.1 nM
22 | CC(C)(C)OC(=O)N1CC[C@@H](C(=O)N2CCC(O)(Cn3cnc(Oc4cccc(OC(F)(F)F)c4)c(N)c3=O)CC2)[C@H](c2ccccc2)C1 [Example 6] | – | 398 nM
23 | CC1(N2CC[C@@H](C(=O)N3CCC(O)(Cn4cnc(Oc5ccc(F)cc5)c(N)c4=O)CC3)[C@H](c3ccccc3)C2)COC1 [Example 111, 5-amino-6-(4-fluorophenoxy)-3-[[4-hydroxy-1-[(3R,4R)-1-(3-methyloxetan-3-yl)-3-phenyl-piperidine-4-carbonyl]-4-piperidyl]methyl]pyrimidin-4-one] | – | 312 nM
24 | Nc1c(Oc2ccc(Cl)c(F)c2)ncn(CC2(O)CCN(C(=O)[C@@H]3CCNC[C@H]3c3ccccc3)CC2)c1=O [Example 16] | – | 232 nM
